Laboratory results taken from patent US20070155824A1, “USE OF BENZO-FUSED HETEROCYCLE SULFAMIDE DERIVATIVES FOR DISEASE MODIFICATION / EPILEPTOGENESIS” (priority 2005, published 2007).

Legend:
[1] = test system: amygdala kindled rat model of partial epilepsy; test: In Vivo, Amygdala Kindling Assay; set-up: species or system Sprague-Dawley rats; details: rats
Source text: The development of amygdala kindling is an established model of epileptogenesis. (Amano K, Hamada K, Yagi K, Seino M. Antiepileptic effects of topiramate on amygdaloid kindling in rats. Epilepsy Res. 1998 Jul;31(2):123-8; Barton M E, White H S. The effect of CGX-1007 and CI-1041, novel NMDA receptor antagonists, on kindling acquisition and expression. Epilepsy Res. 2004 Mar;59(1):1-12; Loscher W, Honack D, Rundfeldt C. Antiepileptogenic effects of the novel anticonvulsant levetiracetam (ucb L059)in the kindling model of temporal lobe epilepsy. J Pharmacol Exp Ther. 1998 Feb;284(2):474-9; McNamara J O. Analyses of the molecular basis of kindling development. Psychiatry Clin Neurosci. 1995 June; 49(3):S175-8. Review.; Morimoto K, Katayama K, Inoue K, Sato K. Effects of competitive and noncompetitive NMDA receptor antagonists on kindling and LTP. Pharmacol Biochem Behav. 1991 Dec;40(4):893-9; Racine, R. J. 1972. Modification of seizure activity by electrical stimulation. II. Motor seizure. Electroencephalogr. Clin. Neurophysiol. 32, 281-294). The kindled rat model of partial epilepsy is an accepted model of epileptogenesis (McNamara J O. Analyses of the molecular basis of kindling development. Psychiatry Clin Neurosci. 1995 Jun;49(3):S1 75-8. Review.).
Briefly, the assay procedure was as follows. Adult male, Sprague-Dawley rats weighing between 250-300 g were obtained from Charles River, Wilmington, Mass. All the animals were housed on a 12:12 light dark cycle and permitted free access to both food (Prolab RMH 3000) and water except when removed from the home cage for experimental procedures. Animals were cared for in a matter consistent with the recommendations detailed in the National Research Council Publication, “Guide for the Care and Use of Laboratory Animals” in a temperature controlled, pesticide-free facility. Kindling stimulations were routinely performed between 9 AM-2 PM to avoid any circadian variations.
Compound #8 was triturated in a small volume of 0.5% methylcellulose, sonicated for 10 min, and brought to a final volume with 0.5% methylcellulose. Compound #8 was administered systemically (i.p.) in a volume of 0.04 ml/10 g body weight and all tests were conducted at the pre-determined time of peak effect of 0.5 hours after i.p. administration.
The ability of Compound #8 to block the expression of amygdala kindled seizures was determined as follows. Rats were anaesthetized with a ketamine (120 mg/kg, i.p.) and xylazine (12 mg/kg, i.p.) cocktail. […]
Amygdala kindling was then performed according to the following protocol. […] The behavioral seizure score and AD duration was recorded for rats in each treatment group. […]

| Structure (SMILES) | melting point [°C] | behavioral seizure score (Racine scale) at the conclusion of the drug- and stimulus-free period ([1]; 75 mg/kg i.p. 30 min before daily amygdala stimulation (200 μA, 2 s) for up to 13 days, re-challenge without drug after one-week drug- and stimulus-free period, vehicle=4.6±0.24) | acquisition of the full generalized kindled seizure ([1]; 75 mg/kg i.p. during kindling acquisition) | after-discharge (AD) duration over the kindling acquisition phase vs vehicle ([1]; 75 mg/kg i.p., daily stimulation, progressive increase in both groups) | delay of acquisition of kindling ([1]; stimulated in the absence of drug after the drug-free week, seizure score rose parallel to vehicle) |
| --- | --- | --- | --- | --- | --- |
| NS(=O)(=O)NCC1CCc2ccccc2O1 (centres unmarked) [Compound #10, Chroman-2-ylmethylsulfamide] | 100 to 101 | – | – | – | – |
| NS(=O)(=O)NC[C@H]1COc2cc(Cl)ccc2O1 [Compound #8, (2S)-(−)-N-(6-Chloro-2,3-dihydro-benzo[1,4]dioxin-2-ylmethyl)-sulfamide] | – | 1.4±0.40 | prevented the acquisition of the full generalized kindled seizure | No statistical difference between treatment groups | delayed the acquisition of kindling by several days |
